# Data taken from patent US20200024278A1, “COMPOSITION COMPRISING ANTIBIOTIC COMPOUND AND AN HETEROCYCLIC COMPOUND AND THEIR USE IN PREVENTING OR TREATING BACTERIAL INFECTIONS” (MUTABILIS, priority 2016, published 2020).
# Columns and labels:
# Experiment in all cases: MIC, broth microdilution (CLSI), substance alone or ATB combined with compound at 4 or 8 μg/mL
# [1] = system: ECO 190317; format: cell-based, E. coli; conditions: ECO 190317
# Summary of the method: (§1)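 Per CLSI-M7-A7, MICs are determined in cation-adjusted Mueller-Hinton broth with a final inoculum of 5·10^5 CFU/mL. Plates incubate 16-20 h at 35° C in air and are read by eye. Fosfomycin assays carry 25 μg/ml glucose-6-phosphate.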
# [2] = system: ECO UFR39; format: cell-based, E. coli; conditions: ECO UFR39
# Summary of the method: as §1
# [3] = system: KPN 6299; format: cell-based, K. pneumoniae
# Summary of the method: as §1
# [4] = system: KPN BAA-1898; format: cell-based, K. pneumoniae; conditions: KPN BAA-1898
# Summary of the method: as §1
# [5] = system: KPN UFR42; format: cell-based, K. pneumoniae; conditions: KPN UFR42
# Summary of the method: as §1
# [6] = system: ECL P99; format: cell-based, E. cloacae; conditions: ECL P99
# Summary of the method: as §1
structure (smiles),measurement,setting,value
C[C@@H](O)[C@H]1C(=O)N2C(C(=O)O)=C(SCCN=CN)C[C@H]12 [IMI],MIC ATB alone,[1]; antibiotic alone,0.125 µg/mL
same,MIC ATB combined with Example 1 @8 μg/ml,[1]; with Example 1 @8 μg/ml,<0.031 µg/mL
same,MIC ATB combined with Example 1 @8 μg/ml,[1]; with Example 1 at 8 μg/ml,<0.031 µg/mL
same,MIC ATB combined with Example 7 @8 μgml,[1]; with Example 7 at 8 μg/ml,<0.031 µg/mL
same,MIC ATB combined with Example 9 @4 μg/ml,[1]; with Example 9 @4 μg/ml,<0.031 µg/mL
same,MIC ATB combined with Example 9 @4 μg/ml,[1]; with Example 9 at 4 μg/ml,<0.031 µg/mL
same,MIC ATB combined with Example 11 @8 μg/ml,[1]; with Example 11 at 8 μg/ml,<0.031 µg/mL
same,MIC ATB combined with Example 12 @8 μg/ml,[1]; with Example 12 at 8 μg/ml,<0.031 µg/mL
same,MIC ATB combined with Example 13 @8 μg/ml,[1]; with Example 13 at 8 μg/ml,<0.031 µg/mL
same,MIC ATB combined with Example 14 @8 μg/ml,[1]; with Example 14 at 8 μg/ml,<0.031 µg/mL
same,MIC ATB combined with Example 15 @4 μgml,[1]; with Example 15 at 4 μg/ml,<0.031 µg/mL
same,MIC ATB combined with Example 16 @4 μg/ml,[1]; with Example 16 at 4 μg/ml,<0.031 µg/mL
same,MIC ATB alone,[2]; antibiotic alone,16 µg/mL
same,MIC ATB combined with Example 1 @8 μg/ml,[2]; with Example 1 @8 μg/ml,<0.031 µg/mL
same,MIC ATB combined with Example 1 @8 μg/ml,[2]; with Example 1 at 8 μg/ml,<0.031 µg/mL
same,MIC ATB combined with Example 7 @8 μgml,[2]; with Example 7 at 8 μg/ml,<0.031 µg/mL
same,MIC ATB combined with Example 9 @4 μg/ml,[2]; with Example 9 @4 μg/ml,<0.031 µg/mL
same,MIC ATB combined with Example 9 @4 μg/ml,[2]; with Example 9 at 4 μg/ml,<0.031 µg/mL
same,MIC ATB combined with Example 11 @8 μg/ml,[2]; with Example 11 at 8 μg/ml,<0.031 µg/mL
same,MIC ATB combined with Example 12 @8 μg/ml,[2]; with Example 12 at 8 μg/ml,<0.031 µg/mL
same,MIC ATB combined with Example 13 @8 μg/ml,[2]; with Example 13 at 8 μg/ml,<0.031 µg/mL
same,MIC ATB combined with Example 14 @8 μg/ml,[2]; with Example 14 at 8 μg/ml,<0.031 µg/mL
same,MIC ATB combined with Example 15 @4 μgml,[2]; with Example 15 at 4 μg/ml,<0.031 µg/mL
same,MIC ATB combined with Example 16 @4 μg/ml,[2]; with Example 16 at 4 μg/ml,<0.031 µg/mL
same,MIC ATB alone,[3]; antibiotic alone,0.25 µg/mL
same,MIC ATB combined with Example 1 @8 μg/ml,[3]; with Example 1 @8 μg/ml,1 µg/mL
same,MIC ATB combined with Example 1 @8 μg/ml,[3]; with Example 1 at 8 μg/ml,1 µg/mL
same,MIC ATB combined with Example 7 @8 μgml,[3]; with Example 7 at 8 μg/ml,4 µg/mL
same,MIC ATB combined with Example 9 @4 μg/ml,[3]; with Example 9 @4 μg/ml,<0.031 µg/mL
same,MIC ATB combined with Example 9 @4 μg/ml,[3]; with Example 9 at 4 μg/ml,<0.031 µg/mL
same,MIC ATB combined with Example 11 @8 μg/ml,[3]; with Example 11 at 8 μg/ml,<0.031 µg/mL
same,MIC ATB combined with Example 12 @8 μg/ml,[3]; with Example 12 at 8 μg/ml,<0.031 µg/mL
same,MIC ATB combined with Example 13 @8 μg/ml,[3]; with Example 13 at 8 μg/ml,1 µg/mL
same,MIC ATB combined with Example 14 @8 μg/ml,[3]; with Example 14 at 8 μg/ml,<0.031 µg/mL
same,MIC ATB combined with Example 15 @4 μgml,[3]; with Example 15 at 4 μg/ml,<0.031 µg/mL
same,MIC ATB combined with Example 16 @4 μg/ml,[3]; with Example 16 at 4 μg/ml,<0.031 µg/mL
same,MIC ATB alone,[4]; antibiotic alone,64 µg/mL
same,MIC ATB combined with Example 1 @8 μg/ml,[4]; with Example 1 @8 μg/ml,2 µg/mL
same,MIC ATB combined with Example 1 @8 μg/ml,[4]; with Example 1 at 8 μg/ml,2 µg/mL
same,MIC ATB combined with Example 7 @8 μgml,[4]; with Example 7 at 8 μg/ml,16 µg/mL
same,MIC ATB combined with Example 9 @4 μg/ml,[4]; with Example 9 @4 μg/ml,<0.031 µg/mL
same,MIC ATB combined with Example 9 @4 μg/ml,[4]; with Example 9 at 4 μg/ml,<0.031 µg/mL
same,MIC ATB combined with Example 11 @8 μg/ml,[4]; with Example 11 at 8 μg/ml,<0.031 µg/mL
same,MIC ATB combined with Example 12 @8 μg/ml,[4]; with Example 12 at 8 μg/ml,<0.031 µg/mL
same,MIC ATB combined with Example 13 @8 μg/ml,[4]; with Example 13 at 8 μg/ml,0.5 µg/mL
same,MIC ATB combined with Example 14 @8 μg/ml,[4]; with Example 14 at 8 μg/ml,<0.031 µg/mL
same,MIC ATB combined with Example 15 @4 μgml,[4]; with Example 15 at 4 μg/ml,<0.031 µg/mL
same,MIC ATB combined with Example 16 @4 μg/ml,[4]; with Example 16 at 4 μg/ml,<0.031 µg/mL
same,MIC ATB alone,[5]; antibiotic alone,32 µg/mL
same,MIC ATB combined with Example 1 @8 μg/ml,[5]; with Example 1 @8 μg/ml,>32 µg/mL
same,MIC ATB combined with Example 1 @8 μg/ml,[5]; with Example 1 at 8 μg/ml,>32 µg/mL
same,MIC ATB combined with Example 7 @8 μgml,[5]; with Example 7 at 8 μg/ml,>32 µg/mL
same,MIC ATB combined with Example 9 @4 μg/ml,[5]; with Example 9 @4 μg/ml,32 µg/mL
same,MIC ATB combined with Example 9 @4 μg/ml,[5]; with Example 9 at 4 μg/ml,32 µg/mL
same,MIC ATB combined with Example 11 @8 μg/ml,[5]; with Example 11 at 8 μg/ml,<0.031 µg/mL
same,MIC ATB combined with Example 12 @8 μg/ml,[5]; with Example 12 at 8 μg/ml,<0.031 µg/mL
same,MIC ATB combined with Example 13 @8 μg/ml,[5]; with Example 13 at 8 μg/ml,>32 µg/mL
same,MIC ATB combined with Example 14 @8 μg/ml,[5]; with Example 14 at 8 μg/ml,<0.031 µg/mL
same,MIC ATB combined with Example 15 @4 μgml,[5]; with Example 15 at 4 μg/ml,<0.031 µg/mL
same,MIC ATB combined with Example 16 @4 μg/ml,[5]; with Example 16 at 4 μg/ml,<0.031 µg/mL
same,MIC ATB alone,[6]; antibiotic alone,0.25 µg/mL
same,MIC ATB combined with Example 1 @8 μg/ml,[6]; with Example 1 @8 μg/ml,<0.031 µg/mL
same,MIC ATB combined with Example 1 @8 μg/ml,[6]; with Example 1 at 8 μg/ml,<0.031 µg/mL
same,MIC ATB combined with Example 7 @8 μgml,[6]; with Example 7 at 8 μg/ml,1 µg/mL
same,MIC ATB combined with Example 9 @4 μg/ml,[6]; with Example 9 @4 μg/ml,<0.031 µg/mL
same,MIC ATB combined with Example 9 @4 μg/ml,[6]; with Example 9 at 4 μg/ml,<0.031 µg/mL
